Laboratory results published in US20150031686A1, “PHENYL-OXAZOLYL DERIVATIVES, PREPARATION METHOD THEREOF, AND RELATED APPLICATION OF THE PHENYL-OXAZOLYL DERIVATIVES AS AN IMPDH INHIBITOR” (INSTITUTE OF MEDICINAL BIOTECHNOLOGY, CHINESE ACADEMY OF …, priority 2012, published 2015).
Converted amounts (≈) assume the structure as drawn.

Legend:
[1] = test system: IMPDH; assay: IMPDH inhibition activity (A340, IMP substrate, NAD); format: biochemical; conditions: compound at 10 μg/mL
Procedure: Measurement of IMPDH Inhibitor Activity
In 96-well plates, use IMP as the substrate and NAD, NADH as chromogenic agents to determine the activity of the compounds described in this invention as IMPDH inhibitor. Add 2 μl of each of the tested sample solution, 20 μl enzyme extract and 30 μl IMP into a sample well in the 96-well plates; 2 μl DMSO and 30 μl IMP solution into a control well; 2 μl DMSO and 20 μl IMPDH buffer instead of the enzyme extract and 30 μl IMP solution into a blank well. Keep plates at constant 37° C. for 15 min, measure absorbance values A340 (OD1) of the solutions in various wells; subsequently, add into each well with 50 μl NAD, keep at constant 37° C. for 50 min, then measure A340 (OD2) values. Calculate IMPDH inhibition rates of samples as follows: Inhibition (%)=[(OD2−OD1)control−(OD2−OD1)Sample]/[(OD2−OD1)control−(OD2−OD1)Blank]×100%.

[2] = test system: Coxsackie virus type B3 (COX-B3); assay: Anti-Coxsackie virus type B3 (COX-B3) activity, CPE in Vero cells; format: cell-based; conditions: Reed-Muench
In short: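 Vero cells infected with 10^−5 COX-B3 or COX-B6 virus, adsorbed 2 h; virus removed, then compounds added at eight 3-fold dilutions, ribavirin as positive control. CPE scored when virus controls reached 4+; IC50 by Reed-Muench.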

[3] = test system: Coxsackie virus type B6 (COX-B6); assay: Anti-Coxsackie virus type B6 (COX-B6) activity, CPE in Vero cells; format: cell-based; conditions: Reed-Muench
Procedure: With Vero (African green monkey kidney) cells as viral hosts, inhibitory effects of the compounds of present invention on the grades of pathological lesions by coxsackievirus B3 (COX-B3), B6 (COX-B6) viruses in Vero cells were determined. The measured results of viral inhibitory activity of the compounds are shown in Table 3 and Table 4; wherein RBV is the control drug ribavirin. The inhibitory activities of the measured compounds against coxsackievirus B3, B6 were stronger than the control.
Screening of Anti-B3, B6 Type Coxsackie Viruses (COX-B3, COX-B6) Activity of the Samples
Prepare stock solutions of COX-B3 (or COX-B6) virus strains as well as tested compounds in DMSO before use. Before tests, dilute the stock solution with culture solution into a certain concentration and then dilute 3 times to make a total of eight dilutions. Use ribavirin (RBV) as positive control. Test procedures are as follows: seed Vero cells into 96-well culture plates, infect with 10^−5 Coxsackie virus of B3 (or B6) type, 24 hours later; adsorb subsequently for 2 hours, then discard the virus solution, add in the sample compounds and the positive control according to the abovementioned dilutions, set cell control wells and virus control wells simultaneously. When the cytopathic effect (CPE) of cells in the virus control wells reach 4+, observe CPE of the cells in each group. Use Reed-Muench method to calculate 50% inhibitory concentration (IC50) of the sample compounds against coxsackie virus B3 (or B6) type.

[4] = test system: human hepatoma cell HepG2; assay: In vitro human hepatoma cell HepG2 inhibitory activity (MTT); format: cell-based; conditions: Homo sapiens, HepG2, 48 h
Excerpt: (§1) According to the progress in the studies on anticancer drugs using IMPDH as a target, the present invention measured inhibitory activities of the compounds of present invention against human hepatoma cell HepG2 and human lung adenocarcinoma cell A549, respectively, the measured results are shown in Table 5:
In Vitro Human Hepatoma Cell HepG2 Inhibitory Activity Measurement
Collect well growing tumor cells, prepare 6×10^4/ml cell suspension in RPMI-1640 or DMEM culture medium containing 10% FBS, seed in 96-well plates, 100 μl suspension each well, incubate at 37° C. under 5% CO2 atmosphere for 24 h, add the test solution (final concentration of drug: 0.625, 1.25, 2.5, 5.0, 10 μg/ml), for each concentration set three parallel holes, set positive control (cisplatin 10, 1, 0.1 μg/ml) and a blank control simultaneously. After culture for 48 h discard the supernatants, add into each well 10 μl MTT solution (5 mg/ml, prepared with RPMI-1640 medium), continue culturing for 4 It, add into each hole 100 μl acidified isopropanol cell lysate, culture overnight, measure absorbance (A) values with Bio-Tek MQX200 type microplate reader with the detection wavelength at 540 nm, and reference wavelength 450 nm. Calculate the inhibition rate as follows: inhibition rate=(Ablank−Asample)/Ablank control×100%. Use Graphpad Prism 5 statistical software to calculate IC50.

[5] = test system: human lung adenocarcinoma cell A549; assay: In vitro human lung adenocarcinoma cell A549 inhibitory activity (MTT); format: cell-based; conditions: Homo sapiens, A549, 48 h
Excerpt: as §1
In Vitro Human Lung Adenocarcinoma Cell A549 Inhibitory Activity Measurement
Cell lines: human lung adenocarcinoma cell A549. Collect well growing tumor cells, prepare cell suspension with Ham's F12 culture solution containing 10% fetal calf serum medium, seed the suspension in 96-well plates, each well 100 μl suspension at 5000 cells/well, incubate at 37° C., under 5% CO2 atmosphere, 24 h later, add 2×drug solution […], each concentration in three parallel holes, set the blank control simultaneously. After culture for 48 h, add 20 μl (5 mg/ml) MTT to each well, culture 4 h, discard the supernatants. Measure absorbance (A) values using Bio-Rad 680 microplate reader at a detection wavelength of 570 nm, the survival rate (%) is calculated as follows: AsampleAblank control×100%. Use statistical software Graphpad Prism5 to calculate IC50. After primary screening of all samples, adjust the concentration gradient of the samples with IC50<100 μg/ml to do additional screenings, which are carried out with two parallel determinations.

[6] = test system: hepatitis B virus; conditions: cell line 2215, hepatitis B virus
[7] = test system: hepatitis B virus strain A64 (lamivudine resistance)
[8] = test system: hepatitis B virus; assay: in vitro; conditions: human
[9] = test system: hepatitis B virus strain A64 (lamivudine resistance); assay: in vitro; conditions: human
[10] = test system: hepatitis B virus; assay: microbe, parasite or virus in culture; conditions: read-out: IC50 (50% inhibition concentration of the virus)
[11] = test system: hepatitis B virus strain A64 (lamivudine resistance); assay: microbe, parasite or virus in culture; conditions: read-out: IC50 (50% inhibition concentration of the virus)
[12] = test system: mouse spleen cell; assay: Mouse spleen cell proliferation inhibiting activity; format: cell-based; conditions: mouse spleen cells
Excerpt: The present invention also provides the results of experimental studies on the biological activity of said compounds.

Row | SMILES | IC50 [2] [µg/mL] | IC50 [3] [µg/mL] | IC50 [4] [µg/mL] | IC50 [5] [µg/mL] | inhibition rate (%) 10 μg/mL [1] [%] | TC50 (half toxic concentration) [6] [µg/mL] | TC50 (half toxic concentration) [7] [µg/mL] | selectivity ratio [8] | selectivity ratio [9] | IC50 [10] [µg/mL] | IC50 [11] [µg/mL] | IC50 [12] [µg/mL]
1 | COc1cc(NCc2ccc(Cl)s2)ccc1-c1cnco1 [Compound 4, N-(5-chlorothien-2-ylmethyl)-3-methoxy-4-(oxazol-5-yl) aniline] | 0.44 (≈ 1.37 µM) | 0.27 (≈ 0.842 µM) | 29.1 (≈ 90.7 µM) | 16 (≈ 50 µM) | 74.9 | 100 (≈ 312 µM) | > 50 | 36.8 | > 28.1 | 2.72 (≈ 8.48 µM) | 1.78 (≈ 5.55 µM) | –
2 | COc1cc(NCc2ccc(C)o2)ccc1-c1cnco1 [Compound 42, N-(5-methylfuran-2-ylmethyl)-3-methoxy-4-(oxazol-5-yl) aniline] | 1.43 (≈ 5.03 µM) | 1.93 (≈ 6.79 µM) | 31.3 (≈ 110 µM) | 20.7 (≈ 72.8 µM) | 60.7 | – | – | – | – | – | – | –
3 | COc1cc(NCc2c[nH]c3ccccc23)ccc1-c1cnco1 [Compound 53, N-(1H-indol-3-ylmethyl)-3-methoxy-4-(oxazol-5-yl) aniline] | > 2.47 | 7.41 (≈ 23.2 µM) | 22.5 (≈ 70.6 µM) | 38.6 (≈ 121 µM) | 39.2 | – | – | – | – | – | – | –

The next lines start with results.

Row | IC50 [2] [µg/mL] | IC50 [3] [µg/mL] | IC50 [4] [µg/mL] | IC50 [5] [µg/mL] | SMILES | inhibition rate (%) 10 μg/mL [1] [%] | TC50 (half toxic concentration) [6] [µg/mL] | TC50 (half toxic concentration) [7] [µg/mL] | selectivity ratio [8] | selectivity ratio [9] | IC50 [10] [µg/mL] | IC50 [11] [µg/mL] | IC50 [12] [µg/mL]
4 | 2.47 (≈ 8.36 µM) | 1.88 (≈ 6.37 µM) | 42.8 (≈ 145 µM) | 36.7 (≈ 124 µM) | COc1cc(NCc2cccc(C)n2)ccc1-c1cnco1 [Compound 57, N-(6-methylpyridin-2-ylmethyl)-3-methoxy-4-(oxazol-5-yl) aniline] | 45.1 | – | – | – | – | – | – | –
5 | 0.64 (≈ 2.06 µM) | 1.06 (≈ 3.42 µM) | 36.2 (≈ 117 µM) | 29.4 (≈ 94.8 µM) | COc1ccc(CNc2ccc(-c3cnco3)c(OC)c2)cc1 [Compound 61, N-(4-methoxybenzyl)-3-methoxy-4-(oxazol-5-yl) aniline] | 73.7 | – | – | – | – | – | – | –
6 | 0.47 (≈ 1.4 µM) | 2.47 (≈ 7.34 µM) | 19.4 (≈ 57.5 µM) | 14.1 (≈ 42 µM) | COc1ccccc1/C=C/CNc1ccc(-c2cnco2)c(OC)c1 [Compound 63] | – | – | – | – | – | – | – | 2.22 (≈ 6.6 µM)
